Results on eleven compounds are retold here after US20240041842A1, “PHARMACEUTICAL COMPOSITION FOR INHIBITING CANCER METASTASIS” (INDUSTRY-ACADEMIC COOPERATION FOUNDATION, YONSEI UNIVERSITY, priority 2021, published 2024).

SMILES strings stand for the structures.

Assay [1] deals with phospho-AMPK T172. In words: Western blot of phospho-AMPK T172. Type of assay: cell-based, human. As to conditions: HBEC-KL cell line; for AMPK phosphorylation: BAPTA or calmidazolium for 1 hour; for AMPK phosphorylation at T172: H2O2 or NAC for 6 hours. On the procedure:
(§1) Cells were harvested, washed with PBS, and lysed on ice with RIPA buffer containing protease and phophatase inhibitor cocktail (GenDEPOT). After 15 minutes of incubation, the cell lysates were centrifuged at 15,000 rpm at 4° C. for 10 minutes. Protein concentration was measured by Bradford assay (Bio-rad, 500-0006). Equal amounts of total protein were placed on an SDS gel electrophoresis and transferred to a PVDF membrane (Bio-rad). The membrane was blocked with 5% skim milk for 1 hour at room temperature and incubated overnight at 4° C. with primary antibody in a buffer containing 0.1% Tween-20. Subsequently, the membrane was washed three times with Tween-PBS buffer and incubated for 1 hour at room temperature using a secondary antibody diluted in blocking buffer containing 0.1% Tween-20. Subsequently, the membrane was washed three times for 10 minutes each using Tween-TBS. Densitometry of Western blots was measured using ImageJ software.
(§2) For inhibition of autophagy, cells were treated with 50 μM chloroquine (Sigma, C6628) for 12 to 24 hours. For autophagy activation, cells were'treated with 2 μM rapamycin (Selleckchem, S1039) for 5 hours. Modulation of intracellular ROS was performed with N-acetyl-cysteine (10 mM) (Sigma, A7250), hydrogen peroxide solution (100 μM to 200 μM) (Sigma, 216763), or CDDO-ME NRF2 activator (50 nM, 100 nM) (Sellckchem, S8078) for 4 to 24 hours. Intercellular calcium signal control was performed for 1 hour using BAPTA-AM (20 μM) (Sigma, A1076) or Calmidazolium Chloride (2.5 μM) (Sigma, C3930). C646 (25 μM) (Sigma, SML0002), curcumin (10 μM) (Selleckchem, S1848) CBP/p300 inhibitor or vorinostat (3 pM) (Selleckchem, S1047) HDAC inhibitor was treated for 24 hours to modulate snail protein acetylation. and CHIR99021 GSK3b inhibitor (3 μM) (Sigma, SML1046) was treated for 24 hours to control Snail protein phosphorylation. For TFEB protein phosphorylation, tacrolimus (1 μM) (Selleckchem, S5003) was treated for 1 hour. […] During siRNA treatment, each siRNA was treated to a concentration of 40 to 50 nM and treated together with Lipofectamine RNAiMax (Thermo Fisher Scientific, 13778150) for transformation, and were used for experiments 48 to 72 hours later. For cDNA treatment, each cDNA was treated to a concentration of 1 to 2 μg in a 6-well plate and treated with Lipofectamine 2000 (Thermo Fisher Scientific, 11668019) for transformation, and were used for experiments 24 hours later.

Assay [2] relates to Snail. In words: Western blot of Snail protein. Type of assay: cell-based, human. Particulars: for Snail expression levels: BAPTA or calmidazolium for 1 hour; for Snail expression: H2O2 or NAC for 6 hours; for Snail: BMS303141 24 hours, NDI-091143 24 hours, SB-204990 2 hours. How it is done: as §1
as §2, with “For inhibition of autophagy, cells were treated with 50 μM chloroquine (Sigma, C6628) for 12 to 24 hours.” left out, “C646 (25 μM) (Sigma, SML0002), curcumin (10 μM) (Selleckchem, S1848) CBP/p300 inhibitor or vorinostat (3 pM) (Selleckchem, S1047) HDAC inhibitor was treated for 24 hours to modulate snail protein acetylation. and CHIR99021 GSK3b inhibitor (3 μM) (Sigma, SML1046) was treated for 24 hours to control Snail protein phosphorylation.” left out

For assay [3], the system named is A549-luc cells. In words: A549-luc tail vein injection metastasis model. Type of assay: in vivo. Particulars: nude mice; 100 mg/kg, qd p.o 20 consecutive days. How it is done:
FIG. 13E illustrates role of STO-609 on cancer metastasis in an A549-luc tail vein injection model. After intravenous injection of A549-luc cells into nude mice, vehicle or STO-609 (25 mg/kg and 100 mg/kg qd) was injected for 28 days starting one day after the injection. A picture taken of a bioluminescent image when 4 weeks have elapsed after injection is shown (above). Analysis results of the total metastasis burden by photonic flux are shown (below). FIG. 13H illustrates the role of BMS303141 on cancer metastasis in an A549-luc tail vein injection model. A549-luc cells were intravenously injected into nude mice, and then vehicle or BMS303141 (100 mg/kg q.d.) was injected for 20 days starting one day after the injection. A bioluminescence image when 3 weeks have elapsed after injection is shown. 7- to 9-week-old BALB/c-nu Sic mice were obtained from SLC, Inc. (Shizuoka, Japan) and used, A549-luc cells (#JCRB1414) or SNAI1 shRNA-mediated knockdown A549-luc cells were injected at 3-4.5×10^6 cells through the tail vein of mice. After 3 to 4 weeks, metastasis was monitored by bioluminescence imaging analysis. More specifically, after injecting D-luciferin (75 mg/kg) (PerkinElmer, 122799) into the abdominal cavity of the mouse, images were obtained using an IVIS imaging system (IVIS 200, PerkinElmer, Waltham, MA, USA) in the supine position. Lung tissue was obtained for histopathological analysis. Images were analyzed using commercially available software (ImageScope; Aperio Technologies). In the STO-609 efficacy test, STO-609 (25 mg, 100 mg/kg/day) was orally administered to mice on the day of injection. In the BMS303141 efficacy test, BMS303141 (100 mg/kg/day) was orally administered to mice on the day of injection.

Assay [4] concerns HBEC-KL cell line. In words: Matrigel invasion assay, HBEC-KL cell line. Type of assay: cell-based, human. Particulars: HBEC-KL; 50 uM BMS303141 24 hours, 1 um NDI-091143 24 hours, 20 uM SB-204990 2 hours. How it is done: For the 2D invasion assay, the inserts were pre-coated with 300 μg/ml Matrigel (Coming, 354234). After staining with […] dye (Bio-Rad, 1450013), 1×10^5 live cells per 8-um-pore cell-culture insert (Costar. 3422) were seeded in 0.5% ACL medium. 10% ACL medium was added to the outside of the insert. In the case of lung cancer and pancreatic cancer cell lines, after inoculation in 1% RPMI medium, 20% RPMI medium was added to the outside of the insert. Plates were incubated for 24 hours at 37° C. After incubation, the insert was fixed with 3.7% PFA, washed, stained with 0.4% crystal violet, and the upper membrane was washed and dried.

For assay [5], the system named is Snail. The assay can be described thus: Immunoprecipitation-immunoblot of phosphorylated/acetylated or K48 polyubiquitinated Snail in A549 cells. Type of assay: cell-based, human. Particulars: 25 uM C646 or 3 uM SAHA. On the procedure:
FIG. 9K illustrates the immunoprecipitation-immunoblot result of phosphorylated/acetylated or K48 polyubiquitinated Snail assay after transfection of wild-type Snail (pFLAG-Snail WT) or acetylation-defective Snail mutant (pFLAG-SnailK146R) into A549 cells and/or treatment with 25 uM C646.
FIG. 9L illustrates the immunoprecipitation-immunoblot results of the polyubiquitinated Snail assay after transfection of HA-ubiquitin and wild-type Snail (pFLAG-Snail WT) or acetylation-defective Snail mutant (pFLAG-SnailK146R) into A549 cells and/or treatment with 25 uM C646 for 2 hours (left) and/or treatment of 3 uM SAHA for 5 hours (right).
(§3) For immunoprecipitation, equal amounts of lysate and Co-IP buffer (40 mM HEPES, pH 7.4, 120 mM NaCl, 2 mM EDTA, 0.3% CHAPS (Sigma, 10810118001), 10 mM pyrophosphate (Sigma, 221368), 10 mM glycerophosphate (Sigma, G9422), 50 mM NaF, phosphatase and protease inhibitor mixture) were mixed. Cell lysates (1 μg protein) were incubated overnight at 4° C. on anti-FLAG® M2 Affinity Gel (Sigma, A2220) or anti-acetyl-lysine antibody coated agarose (ImmuneChem Pharmaceuticals, ICP0388). The immunoprecipitate was then washed three times in IP buffer, and the immunoprecipitated complex was dissolved and separated by boiling in IP buffer for 5 minutes.
(In general: In western blotting, separated proteins are transferred to a membrane and probed.)

The test system of assay [6] is TFEB. The assay can be described thus: Western blot / immunoprecipitation-immunoblot of TFEB (acetylated, phosphorylated, total). Type of assay: cell-based, human. As to conditions: HBEC-KL; 1 uM FK506, 1 hour. How it is done: FIG. 11J illustrates a diagram of immunoblot results of the […] a control (left), and the immunoprecipitation-immunoblot result of TFEB acetylated HBEC-KL cells under the same conditions (right) is also shown,
as §1, §3

Assay [7] deals with TFEB (CLEAR network). In words: CLEAR motif-driven luciferase reporter assay. Type of assay: cell-based, human. As to conditions: HBEC-KL; 1 uM FK506, 1 hour. On the procedure:
To compare the TFEB reporter activity with other cell lines (HBEC30KT, HBEC-K, and HBEC-KL), the pGL4.70 5× CLEAR Rluc and pSt4.14 Fluc vectors were transiently co-transfected and normalized luciferase activity was measured in Dual-Measured by Luciferase® Reporter Assay System (Promega, E1910),
For orientation: A reporter such as luciferase makes a cellular process visible.

Assay [8] deals with LC3. The assay can be described thus: Autophagic flux (LC3 Western blot, mRFP-GFP-LC3 lysosomal delivery assay). Type of assay: cell-based, human. As to conditions: HBEC-KL cell line; NAC or 50 uM STO-609, 24 hours. On the procedure: as §1, with “Representative GFP-LC3, RFP-LC3 and overlapping images are shown. In addition, red puncta (mRFP+/GFP−) and yellow puncta (mRFP+/GFP+) per cell were quantified and graphed (n=15 cells/treatment). Cells” for “Cells”

Setting [9] is: HBEC-KL cell line, 20 nM bortezomib.

`Clc1ccc(C(c2ccc(Cl)cc2)n2cc[n+](CC(OCc3ccc(Cl)cc3Cl)c3ccc(Cl)cc3Cl)c2)cc1` (stereo not shown) [calmidazolium]: in assay [1], the AMPK phosphorylation entry is given as “reduced”. Besides, in assay [2] (HBEC-KL cell line), the Snail expression levels entry is “reduced”.
In the case of `OO` [H2O2, hydrogen peroxide], the “AMPK phosphorylation at T172” value in assay [1] was “increased”. Further, the Snail expression result in assay [2] (HBEC-KL cell line) was “increased”.
Regarding `COc1ccc(-c2ccccc2)cc1NS(=O)(=O)c1cc(Cl)cc(Cl)c1O` [BMS303141], the Snail entry in assay [2] (HBEC-KL) is given as “reduced”. Besides, the “total degree of metastasis” value in assay [3] is “reduced”. In addition, the Matrigel invasion entry in assay [4] was “reduced”.
For the compound `CC1=NN(c2ccc(C(=O)O)cc2)C(=O)/C1=C\c1ccc(-c2cc(C)c(C)cc2[N+](=O)[O-])o1` [C646], in assay [5] (pFLAG-Snail WT), the “K48 polyubiquitination of wild-type Snail” value is reported as “increased” and the “phosphorylation of wild-type Snail” value was “increased”. Further, in assay [5] (pFLAG-SnailK146R), the “phosphorylation and acetylation of K146R Snail” value was “did not affect”.
For `O=C(O)CN(CC(=O)O)c1ccccc1OCCOc1ccccc1N(CC(=O)O)CC(=O)O` [BAPTA], in assay [1], the AMPK phosphorylation result is recorded as “reduced”. In assay [2] (HBEC-KL cell line), the Snail expression levels result is “reduced”.
Consider `COC(=O)c1cc(Cl)c(O)c(S(=O)(=O)Nc2cc(-c3ccccc3)c(F)cc2F)c1` [NDI-091143], for which the Snail result in assay [2] (HBEC-KL) is “reduced”. The Matrigel invasion result in assay [4] was “reduced”.
Consider `C=CC[C@@H]1/C=C(\C)C[C@H](C)C[C@H](OC)[C@H]2O[C@@](O)(C(=O)C(=O)N3CCCC[C@H]3C(=O)O[C@H](/C(C)=C/[C@@H]3CC[C@@H](O)[C@H](OC)C3)[C@H](C)[C@@H](O)CC1=O)[C@H](C)C[C@@H]2OC` [FK506, tacrolimus], for which the phospho-TFEB result in assay [6] is on record as “increasing”. Further, the CLEAR activity result in assay [7] is listed as “decreased”.
As to `CC(=O)N[C@@H](CS)C(=O)O` [NAC, N-acetyl-cysteine], the autophagic flux entry in assay [8] is listed as “decreased”. Moreover, the “AMPK phosphorylation at T172” value in assay [1] is on record as “decreased”. The Snail expression entry in assay [2] (HBEC-KL cell line) is on record as “decreased”.
For `CC(C)C[C@H](NC(=O)[C@H](Cc1ccccc1)NC(=O)c1cnccn1)B(O)O` [bortezomib], in assay [2] (setting [9]), the “reduction of Snail by STO-609, with bortezomib also treated” value is “restored” and the “reduction of Snail by chloroquine (CQ), with bortezomib also treated” value is listed as “restored”. In addition, in assay [2] (HBEC-KL, 20 nM bortezomib for 3 hours), the “Snail reduction caused by the ACLY inhibitor, with Bortezomib” value was “restored”.
As for `O=C(O)C[C@@]1(O)C[C@@H](CCCCCCc2ccc(Cl)cc2Cl)OC1=O` [SB-204990], the Snail entry in assay [2] (HBEC-KL) is reported as “reduced”. Moreover, the Matrigel invasion result in assay [4] is reported as “reduced”.
As to `COC(=O)[C@]12CCC(C)(C)C[C@H]1[C@H]1C(=O)C=C3[C@@]4(C)C=C(C#N)C(=O)C(C)(C)[C@@H]4CC[C@@]3(C)[C@]1(C)CC2` [CDDO-ME], the “level of phospho-AMPK T172” value in assay [1] (CDDO-ME for 24 hours) is reported as “reduced”.
